According to US9164109B2, “Use of probes for unbound metabolites” (priority 2006, dated 2015):

Target: T1, HSA (Homo sapiens, UniProt P02768)
T1 construct: from tissue; host or cells: blood plasma of healthy adult donors, diluted to 1%
Assay: Equilibrium-binding model of UCB and HSA
Settings: value used to calculate model [UCBf], [HSA]=6.5 μM, FIG. 2
Description: Investigations of the effects of FFA on our UCB probes are necessary because the probes are constructed from FABP mutants and FFA are abundant in plasma. Interference testing of every possible component of plasma, however, is not feasible. Therefore UCBf was measured in samples of diluted plasma, from 6 healthy adult donors, titrated with UCB. Because the [UCBf] is determined by the UCB:HSA ratio, the [HSA] of each plasma sample was measured using a Bromcresol Green Albumin Determination Kit from Sigma-Aldrich. HSA concentrations were similar for all samples and ranged from 620 to 680 μM. Plasma [FFAu] was measured with ADIFAB2 and ranged from 1.0 to 3.6 nM. The L24P19C7 probe at 0.5 μM was used to measure [UCBf] in 1% plasma (i.e., 6.2 to 6.8 μM HSA) titrated with UCB (FIG. 2). This probe has the following mutations with reference to rat Intestinal Fatty Acid Binding Protein (SEQ ID NO: 4): Y14R M18L L38V V60R A72L A73F R106C Q115R and Y117D. Without the addition of UCB, all samples yielded a [UCBf] of nearly zero, in good agreement with the 0 to 1 nM [UCBf] expected for a healthy adult. […] Indeed, the increase was consistent with the change in [UCBf] predicted using the equilibrium-binding model, confirming the accuracy of the probe in plasma.

T1 sequence (P02768 25-609): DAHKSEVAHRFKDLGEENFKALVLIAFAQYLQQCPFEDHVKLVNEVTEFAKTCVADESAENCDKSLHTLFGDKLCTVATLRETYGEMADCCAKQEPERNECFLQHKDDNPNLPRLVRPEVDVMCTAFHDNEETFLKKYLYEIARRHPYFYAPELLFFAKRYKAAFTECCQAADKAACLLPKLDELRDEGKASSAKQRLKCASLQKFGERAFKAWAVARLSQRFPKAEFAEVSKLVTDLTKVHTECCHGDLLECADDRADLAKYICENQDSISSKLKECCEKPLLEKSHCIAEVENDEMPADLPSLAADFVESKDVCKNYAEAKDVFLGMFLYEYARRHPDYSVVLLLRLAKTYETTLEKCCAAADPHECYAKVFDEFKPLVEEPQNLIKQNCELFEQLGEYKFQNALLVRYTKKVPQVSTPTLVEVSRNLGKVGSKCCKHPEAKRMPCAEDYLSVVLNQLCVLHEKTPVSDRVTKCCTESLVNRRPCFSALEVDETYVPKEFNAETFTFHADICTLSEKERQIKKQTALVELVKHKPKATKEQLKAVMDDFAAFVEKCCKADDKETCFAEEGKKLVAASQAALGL

- Kd: 19 nM
Structure (SMILES): C=CC1=C(C)/C(=C/c2[nH]c(Cc3[nH]c(/C=C4\NC(=O)C(C)=C4C=C)c(C)c3CCC(=O)O)c(CCC(=O)O)c2C)NC1=O [UCB, unconjugated bilirubin]
